Molecular target: T1, Human FAAH (Homo sapiens, UniProt O00519)
T1 construct: made in house
T1 sequence (O00519 32-579 limits assumed): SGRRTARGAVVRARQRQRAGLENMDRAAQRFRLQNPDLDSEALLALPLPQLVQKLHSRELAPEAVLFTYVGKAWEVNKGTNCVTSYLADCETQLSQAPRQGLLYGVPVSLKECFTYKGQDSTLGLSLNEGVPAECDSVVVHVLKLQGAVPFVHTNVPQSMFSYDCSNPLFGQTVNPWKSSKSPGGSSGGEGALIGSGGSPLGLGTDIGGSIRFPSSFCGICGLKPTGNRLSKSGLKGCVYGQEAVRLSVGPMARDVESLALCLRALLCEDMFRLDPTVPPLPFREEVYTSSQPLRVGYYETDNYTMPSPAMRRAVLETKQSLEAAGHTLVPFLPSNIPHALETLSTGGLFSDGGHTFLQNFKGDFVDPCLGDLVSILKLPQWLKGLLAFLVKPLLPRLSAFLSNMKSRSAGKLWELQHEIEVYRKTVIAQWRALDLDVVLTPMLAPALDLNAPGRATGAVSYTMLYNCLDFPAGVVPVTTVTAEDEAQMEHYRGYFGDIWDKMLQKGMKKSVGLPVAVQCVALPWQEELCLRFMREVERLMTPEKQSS
Assay: FAAH assay (glutamate dehydrogenase-coupled, oleamide substrate, absorbance at 340 nm)
Type: biochemical
Conditions: for kinact/KI: further compounds, read-out: hFAAH_Kinact/Ki—StL; for hFAAH KInact/K: irreversible inhibition potency
How it was run: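 Human FAAH (1-4 nM) with 50 μM oleamide, coupled to glutamate dehydrogenase/NADH, pH 7.4, 7.5% DMSO and EtOH, 30° C; A340 read every 30 s for 90 min. Irreversible inhibition fitted for kobs per concentration, then Ki and kinact from kobs vs. [I].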

Compound	kinact/KI [M⁻¹ s⁻¹]	hFAAH KInact/K [M⁻¹ s⁻¹]
COc1cnc(NC(=O)N2CCC(=Cc3cccc(OCC4CCCCO4)c3)CC2)cn1 (stereo not shown) [N-(5-methoxypyrazin-2-yl)-4-[3-(tetrahydro-2H-pyran-2-ylmethoxy)benzylidene]piperidine-1-carboxamide]	404	
COc1cccc(C=C2CCN(C(=O)Nc3cccnc3)CC2)c1 [Example 2, 4-(3-methoxybenzylidene)-N-pyridin-3-ylpiperidine-1-carboxamide]		973
4-[3-(1-methyl-2-phenoxyethoxy)benzylidene]-N-pyridazin-3-ylpiperidine-1-carboxamide [Example 90]		3971
O=C(Nc1cccnn1)N1CCC(=Cc2cccc(OCCc3ccc(F)cc3)c2)CC1 [Example 92, 4-{3-[2-(4-fluorophenyl)ethoxy]benzylidene}-N-pyridazin-3-ylpiperidine-1-carboxamide]		5205
CCCC(C)Oc1cccc(C=C2CCN(C(=O)Nc3cccnn3)CC2)c1 (stereo not shown) [Example 31, 4-[3-(1-methylbutoxy)benzylidene]-N-pyridazin-3-ylpiperidine-1-carboxamide]		7450
CCC(CC)Oc1cccc(C=C2CCN(C(=O)Nc3cccnn3)CC2)c1 [Example 28, 4-[3-(1-ethylpropoxy)benzylidene]-N-pyridazin-3-ylpiperidine-1-carboxamide]		303
O=C(Nc1cccnn1)N1CCC(=Cc2cccc(OC3CCCCCC3)c2)CC1 [Example 16, 4-[3-(cycloheptyloxy)benzylidene]-N-pyridazin-3-ylpiperidine-1-carboxamide]		2190
COc1ccc(NC(=O)N2CCC(=Cc3cccc(OCC4CCCCO4)c3)CC2)cn1 (stereo not shown) [N-(6-methoxypyridin-3-yl)-4-[3-(tetrahydro-2H-pyran-2-ylmethoxy)benzylidene]piperidine-1-carboxamide]	950	
O=C(Nc1cccnn1)N1CCC(=Cc2cccc(OCc3cc4ccccc4o3)c2)CC1 [Example 88, 4-[3-(1-benzofuran-2-ylmethoxy)benzylidene]-N-pyridazin-3-ylpiperidine-1-carboxamide]		629
C=CC(C)Oc1cccc(C=C2CCN(C(=O)Nc3cccnn3)CC2)c1 (stereo not shown) [Example 26, 4-{3-[(1-methylprop-2-en-1-yl)oxy]benzylidene}-N-pyridazin-3-ylpiperidine-1-carboxamide]		<10.0
O=C(Nc1cccnn1)N1CCC(=Cc2cccc(OCCC3CC3)c2)CC1 [Example 83, 4-[3-(2-cyclopropylethoxy)benzylidene]-N-pyridazin-3-ylpiperidine-1-carboxamide]		22138
4-{3-[(2,4-dimethyl-1,3-thiazol-5-yl)methoxy]benzylidene}-N-pyridazin-3-ylpiperidine-1-carboxamide [Example 69]		331
O=C(Nc1cccnn1)N1CCC(=Cc2cccc(OCC3CCCO3)c2)CC1 (stereo not shown) [Example 45, N-pyridazin-3-yl-4-[3-(tetrahydrofuran-2-ylmethoxy)benzylidene]piperidine-1-carboxamide]		573
4-(3-{[trans-4-(cyanomethyl)cyclohexyl]methoxy}benzylidene)-N-pyridazin-3-ylpiperidine-1-carboxamide [Example 96]		1470
O=C(Nc1cccnn1)N1CCC(=Cc2cccc(OCCCC(F)(F)F)c2)CC1 [Example 72, N-pyridazin-3-yl-4-[3-(4,4,4-trifluorobutoxy)benzylidene]piperidine-1-carboxamide]		16800
CC1(C)CCC(Oc2cccc(C=C3CCN(C(=O)Nc4cccnn4)CC3)c2)CC1 [Example 81, 4-{3-[(4,4-dimethylcyclohexyl)oxy]benzylidene}-N-pyridazin-3-ylpiperidine-1-carboxamide]		3744

Reference: US20110144159A1, “ETHER BENZYLIDENE PIPERIDINE ARYL CARBOXAMIDE COMPOUNDS USEFUL AS FAAH INHIBITORS” (Pfizer Inc, priority 2008, published 2011)
